According to PMC10177380 (Cancers, 2023):
Where two headings read alike, the source gives them in different places. Marks after values point to notes of the source that are not given here.

What was measured:
HT29 colon cells [1] = experiment: ROS production, DCFDA/H2DCFDA cellular ROS assay; assay type: cell-based, human; details: treatment at GI50 concentration (TBHP positive control 20 μM)
Procedure: To determine the presence of ROS in treated cells, a DCFDA/H2DCFDA-cellular ROS Assay Kit (Abcam, Cambridge, MA, USA) was utilised, as previously reported. The ROS potential of platinum(II) precursors and platinum(IV) scaffolds, which were determined using the same method, were also presented in this study for comparison.
Additionally, the ROS potential of the platinum(II) precursors and platinum(IV) scaffolds was determined previously and was presented here to allow for comparison (Table 10 and Figure 13). […] Treatment with the complexes and ligands was completed at each specific GI50 concentration. […]
(§1) dimethylthiazol-2-yl]-2,5-diphenyltetrazolium bromide) assay and absorbance was read at 540 nm. An eight-point dose response curve was produced from which the GI50 value was calculated, representing the drug concentration at which cell growth was inhibited by 50% based on the difference between the optical density values on day 0 and those at the end of drug exposure.
4. Reactive Oxygen Species (ROS) Potential
A total of 25,000 cells/mL of HT29 cells in DMEM were seeded in 96-well plates. Cells were washed with 1X kit buffer, and then stained with 25 μM 2’,7’-dichlorofluorescein diacetate (DCFH-DA) and incubated for 45 min. DCFH-DA was then removed, and cells were then re-washed with 1X kit buffer, after which phenol red free media was added.
Cells were then treated with a GI50 drug concentration for each complex. The plates were directly scanned to measure fluorescence (relative fluorescence units (RFU)) at different time points using the Glo-Max®-Multimode microplate reader (Promega Corporation, Alexandra, VIC, Australia) at an excitation/emission of 485/535 nm. […]

HT29 colon cells [2] = test system: HT29 colon cells; design: method as in PMID 36296713, PMID 36142383; details: cited from earlier work
HT29 colon = test system: HT29 colon; design: method as in PMID 36296713, PMID 36142383; details: cited from earlier work
multiple cell lines = test system: multiple cell lines; design: method as in PMID 36296713, PMID 36142383; details: mean over all cell lines tested; cited from earlier work
[3] = test system: ADDP ovarian variant (cisplatin-resistant A2780 clone); design: method as in PMID 36296713, PMID 36142383; details: cited from earlier work
U87 glioblastoma = test system: U87 glioblastoma; design: method as in PMID 36296713, PMID 36142383; details: cited from earlier work
Du145 prostate = test system: Du145 prostate; design: method as in PMID 36296713, PMID 36142383; details: cited from earlier work
[4] = test system: non-tumour derived MCF10A breast line; design: method as in PMID 36296713, PMID 36142383; details: cited from earlier work
MIA pancreas = test system: MIA pancreas; design: method as in PMID 36296713, PMID 36142383; details: cited from earlier work
H460 lung = test system: H460 lung; design: method as in PMID 36296713, PMID 36142383; details: cited from earlier work
MCF7 breast = test system: MCF7 breast; design: method as in PMID 36296713, PMID 36142383; details: cited from earlier work
A2780 ovarian = test system: A2780 ovarian; design: method as in PMID 36296713, PMID 36142383; details: cited from earlier work
HT29 colon cells [5] = experiment: Mitochondrial membrane potential, TMRE-MtMP assay; assay type: cell-based, human; details: treatment at GI50 concentration (FCCP positive control 20 μM)
Source text: To study the MtMP changes in treated cells, a TMRE-MtMP Assay Kit (Abcam, Cambridge, MA, USA) was used (see Supplementary Materials).
TMRE was used to stain HT29 colon cells, and treatment with the complexes and ligands was completed at each specific GI50 concentration. The MtMP changes detected are expressed as RFU. Additionally, lower RFU values correspond to a decline in mitochondrial activity. […]
as §1, with “exposure. […]” for “exposure.”
5. Mitochondrial Membrane Potential (MtMP)
In 96-well plates, 25,000 cells/mL of HT29 colon cells in DMEM were seeded. Cells were treated with a GI50 drug concentration for each complex. […]
washed with PBS and stained with 1 μM tetramethylrhodamine, ethyl ester (TMRE) and incubated for 30 min. TMRE was then removed, and cells were then re-washed with PBS (0.2% BSA), after which phenol red free media was added. The plates were directly scanned to measure fluorescence (expressed as RFU), using the Glo-Max®-Multimode […]
microplate reader (Promega Corporation, Alexandra, VIC, Australia) at an […]
For the positive control, 20 μM carbonyl cyanide 4-(trifluoromethoxy) phenylhydrazone (FCCP)) was added to the cells and incubated for 10 min. The cells were washed with PBS (0.2% BSA) and stained with TMRE (1 μM) for 30 min; this was removed and phenol red free media was added, and the final solution was scanned as mentioned above. […]

MCF10A / Du145 = test system: MCF10A / Du145; design: method as in PMID 36296713, PMID 36142383; details: GI50 in MCF10A/GI50 in Du145, from data of previous studies; cited from earlier work
SJG2 glioblastoma = test system: SJG2 glioblastoma; design: method as in PMID 36296713, PMID 36142383; details: cited from earlier work
BE2C neuroblastoma = test system: BE2C neuroblastoma; design: method as in PMID 36296713, PMID 36142383; details: cited from earlier work
A431 skin = test system: A431 skin; design: method as in PMID 36296713, PMID 36142383; details: cited from earlier work
[6] = design: method as in PMID 24951889; details: water, from the literature; cited from earlier work

Compound | ROS Production (HT29 colon cells [2]; HT29, 24 h) [RFU] | ROS Production (HT29 colon cells [2]; HT29, 48 h) [RFU] | ROS Production (HT29 colon cells [2]; HT29, 72 h) [RFU] | GI50 (HT29 colon) [nM] | GI50 (multiple cell lines) [nM] | GI50 [3] [nM] | GI50 (U87 glioblastoma) [nM] | GI50 (Du145 prostate) [nM] | GI50 [4] [nM] | GI50 (MIA pancreas) [nM] | GI50 (H460 lung) [nM] | GI50 (MCF7 breast) [nM] | GI50 (A2780 ovarian) [nM] | MtMP Changes (HT29 colon cells [5]; HT29, 24 h) [RFU] | MtMP Changes (HT29 colon cells [5]; HT29, 48 h) [RFU] | MtMP Changes (HT29 colon cells [5]; HT29, 72 h) [RFU] | Selectivity Cytotoxicity Index (SCI) (MCF10A / Du145) | GI50 (SJG2 glioblastoma) [nM] | GI50 (BE2C neuroblastoma) [nM] | GI50 (A431 skin) [nM] | also measured
CC(C)(C)OO [TBHP, tert-butyl hydroperoxide] | – | – | – | – | – | – | – | – | – | – | – | – | – | – | – | – | – | – | – | – | ROS Production (HT29 colon cells [1]; HT29, 24 h): 658 ± 28 RFU; ROS Production (HT29 colon cells [1]; HT29, 48 h): 504 ± 15 RFU; ROS Production (HT29 colon cells [1]; HT29, 72 h): 497 ± 10 RFU
Cc1cc2c3c4c1=CC=C[N]4[Pt+2]([OH])([OH])[N]3C=CC=2.N[C@H]1CCCC[C@@H]1N [5MESS(IV)(OH)2] | 234 ± 1 | 323 ± 9 | 335 ± 2 | 60 ± 6 | 443 ± 81 | 130 ± 22 | 900 ± 58 | 41 ± 5 | 130 ± 19 | 160 ± 29 | 60 ± 5 | 1200 ± 390 | 240 ± 9 | 301 ± 14 | 214 ± 9 | 198 ± 4 | 3.17 | 640 ± 70 | 1400 ± 300 | 360 ± 58 | –
O=C1[O][Pt]2([NH][C@@H]3CCCC[C@H]3[NH]2)[O]C1=O (relative stereo) [Oxaliplatin, trans-L-(1R,2R-diaminocyclohexane) oxalatoplatinum(II)] | – | – | – | 900 ± 200 | 1460 ± 320 | 800 ± 100 | 1800 ± 200 | 2900 ± 400 | – | 900 ± 200 | 1600 ± 100 | 500 ± 100 | 160 ± 100 | – | – | – | – | 3000 ± 1200 | 900 ± 200 | 4100 ± 500 | –
N[C@H]1CCCC[C@@H]1N.[OH][Pt+2]1([OH])[N]2C=CC=c3ccc4c(c32)[N]1C=CC=4 [PHENSS(IV)(OH)2] | 144 ± 5 | 273 ± 4 | 303 ± 1 | 710 ± 300 | 3320 ± 880 | 1300 ± 350 | 4900 ± 610 | 310 ± 92 | 1700 ± 200 | 3400 ± 2200 | 1700 ± 200 | 16000 | 800 ± 84 | 321 ± 17 | 241 ± 10 | 216 ± 8 | 5.48 | 1700 ± 350 | 3000 ± 530 | 4300 ± 530 | –
N#CC(C#N)=NNc1ccc(OC(F)(F)F)cc1 [FCCP, carbonyl cyanide 4-(trifluoromethoxy) phenylhydrazone] | – | – | – | – | – | – | – | – | – | – | – | – | – | 194 ± 10 | 143 ± 5 | 80 ± 5 | – | – | – | – | –
Cc1c(C)c2c3c4c1=CC=C[N]4[Pt+2]([OH])([OH])[N]3C=CC=2.N[C@H]1CCCC[C@@H]1N [56MESS(IV)(OH)2] | 259 ± 3 | 356 ± 11 | 438 ± 7 | 36 ± 7 | 151 ± 50 | 170 ± 120 | 190 ± 23 | 15 ± 2.6 | 61 ± 7 | 43 ± 2.5 | 190 ± 150 | 480 ± 140 | 59 ± 7 | 245 ± 16 | 177 ± 11 | 125 ± 12 | 4.07 | 210 ± 45 | 240 ± 22 | 120 ± 22 | –
N.N.O=C([O-])C1(C(=O)[O-])CCC1.[Pt+2] [Carboplatin, cis-diammine(1,1-cyclobutanedicarboxylato) platinum(II)] | – | – | – | > 50000 | 32200 | > 50000 | > 50000 | 15000 | > 50000 | > 50000 | 14000 | > 50000 | 9200 ± 2900 | – | – | – | 3.33 | 5700 ± 200 | 19000 | 24000 | Solubility [6]: 11.7 * mg/mL
